These results are taken from patent US20030171368A1, “Pyrimidinonesulfamoylureas`” (priority 2002, published 2003).

≈ marks a conversion by molar mass, not a printed value. Bounds are passed on as bounds.

The target of one series is T1, integrin αvβ3 (Homo sapiens, UniProt P05106+P06756).
T1 construct: from tissue; host or cells: human placenta
The series can be described thus: Integrin αvβ3 assay: competition between vitronectin and test substance for binding to solid phase-bound integrin αvβ3. Conditions: competition with human vitronectin; result in words only. How it is done:
For the identification and assessment of integrin αvβ3 ligands, a test system was used which is based on competition between the natural integrin αvβ3 ligand vitronectin and the test substance for binding to solid phase-bound integrin αvβ3. […]
coat microtiter plates with 250 ng/ml of integrin αvβ3 in 0.05 M NaHCO3 pH 9.2; 0.1 ml/well; overnight/4° C. saturate with 1% milk powder/assay buffer; 0.3 ml/well; 0.5 h/RT wash 3× with 0.05% Tween 20/assay buffer test substance in 0.1% milk powder/assay buffer, 50 μl/well +0 μg/ml or 2 μg/ml of human vitronectin (Boehringer Ingelheim T007) in 0.1% milk powder/assay buffer, 50 μl/well; 1 h/RT […]
1 μg/ml of anti-human vitronectin antibody coupled to peroxidase (Kordia SAVN-APHRP) in 0.1% milk powder/assay buffer; 0.1 ml/well; 1 h/RT […]
0.1 ml/well of peroxidase substrate stop reaction with 0.1 ml/well of 2 M H2SO4 measurement of the absorption at 450 nm
Integrin αvβ3: Human placenta is solubilized with Nonidet and integrin αvβ3 is affinity-purified on a GRGDSPK matrix (elution mit EDTA). Impurities due to integrin […] and human serum albumin, and the detergent and EDTA are removed by anion exchange chromatography. […]
As for `Cc1cn(C[C@H](NS(=O)(=O)N(C)C)C(=O)O)c(=O)nc1N1CCC(CNc2ccccn2)CC1` [Example 9, (2S)-2-{[(Dimethylamino)sulfonyl]amino}-3-(5-methyl-2-oxo-4-{4-[(2-pyridinylamino)-methyl]-1-piperidinyl}-1 (2H)-pyrimidinyl)propionic acid], the “IC50 values (concentration of the ligand at which 50% of the ligand is displaced)” value is given as “best results”.

For the compound `Cc1cn(C[C@H](NS(=O)(=O)N(C)C)C(=O)O)c(=O)nc1N1CCC(CNc2nc3ccccc3[nH]2)CC1.Cl.Cl` [Example 2, (2S)-3-(4-{4-[(1H-Benzimidazol-2-ylamino)methyl]-1-piperidinyl}-5-methyl-2-oxo-1 (2H)-pyrimidinyl)-2-{[(dimethylamino)sulfonyl]amino}propionic acid (dihydrochloride)], the “IC50 values (concentration of the ligand at which 50% of the ligand is displaced)” value is recorded as “best results”.

System in the next series: not listed separately
Put plainly: Solubility in water (10 mg in 1 ml H2O, shaken, centrifuged, HPLC against DMSO solution). It is filed as physicochemical. Conditions: 10 mg substance in 1 ml H2O, shaken 10 minutes, supernatant measured by HPLC. The method, then:
The compounds of the general formula I according to the invention are distinguished in comparison to the substances described in WO 00/61551 by more advantageous physicochemical properties, in particular an improved solubility in water.
10 mg of the substance to be investigated were dissolved in 1 ml of DMSO, vigorously shaken for 10 minutes and then centrifuged for 10 minutes at 10000 rpm and diluted with a mixture of 5% CH3CN/H2O+0.1% TFA 1:10.
10 mg of substance were mixed with 1 ml of H2O, vigorously shaken for 10 minutes and centrifuged for 10 minutes at 10000 rpm. The supernatant was removed and likewise diluted. Both solutions were measured by HPLC (column: MACHEREY & NAGEL, Nucleosil C18 PPN, 100×2.1 mm ID, 5μ, temp: 40° C.) and the concentration of the aq. solution was determined.
As for `CCOC(=O)N[C@@H](Cn1cc(C)c(N2CCC(CNc3nc4ccccc4[nH]3)CC2)nc1=O)C(=O)O.Cl` [(2S)-3-(4-{4-[(1H-Benzimidazol-2-ylamino)methyl]-1-piperidlnyl}-5-methyl-2-oxo-1(2H)-pyrimidinyl)-2-[(ethoxycarbonyl)amino]propanoic acid (hydrochloride)], the “Solubility (H2O)” value came to 560 µg/mL.

The same series, now with this note: water, thermodynamic from solid, 10 mg substance in 1 ml H2O, shaken 10 minutes, supernatant measured by HPLC.
Compound `CCNC(=O)N[C@@H](Cn1cc(C)c(N2CCC(CNc3nc4ccccc4[nH]3)CC2)nc1=O)C(=O)O` [(2S)-3-(4-{4-[(1H-Benzimidazol-2-ylamino)methyl]-1-piperidinyl}-5-methyl-2-oxo-1(2H)-pyrimidinyl)-2-{[(ethylamino)carbonyl]amino}propanoic acid] showed a solubility at 10 min of 860 µg/mL (≈ 1730 µM).

In turn, `CC(=O)O.Cc1cn(C[C@H](NS(=O)(=O)c2ccccc2)C(=O)O)c(=O)nc1N1CCC(CNc2nc3ccccc3[nH]2)CC1` [(2S)-3-(4-{4-[(1H-Benzimidazol-2-ylamino)methyl]-1-piperidinyl}-5-methyl-2-oxo-1(2H)-pyrimidinyl)-2-[(phenylsulfonyl)amino]propanoic acid (acetate)] showed a solubility at 10 min of less than 50 µg/mL.

Consider `Cc1cn(C[C@H](NC(=O)N(C)C)C(=O)O)c(=O)nc1N1CCC(CNc2nc3ccccc3[nH]2)CC1.Cl` [(2S)-3-(4-{4-[(1H-Benzimidazol-2-ylamino)methyl]-1-piperidinyl}-5-methyl-2-oxo-1(2H)-pyrimidinyl)-2-{[(dimethylamino)carbonyl]amino}propanoic acid (hydrochloride)], for which the solubility at 10 min turned out to be 810 µg/mL.

For the compound `CC(=O)N[C@@H](Cn1cc(C)c(N2CCC(CNc3nc4ccccc4[nH]3)CC2)nc1=O)C(=O)O.Cl` [(2S)-2-(Acetylamino)-3-(4-{4-[(1H-benzimidazol-2-ylamino)methyl]-1-piperidinyl}-5-methyl-2-oxo-1(2H)-pyrimidinyl)propanoic acid (hydrochloride)], the solubility at 10 min came out at 1000 µg/mL.

With `Cc1cn(C[C@H](NS(=O)(=O)N(C)C)C(=O)O)c(=O)nc1N1CCC(CNc2nc3ccccc3[nH]2)CC1.Cl.Cl` [Example 2, (2S)-3-(4-{4-[(1H-Benzimidazol-2-ylamino)methyl]-1-piperidinyl}-5-methyl-2-oxo-1 (2H)-pyrimidinyl)-2-{[(dimethylamino)sulfonyl]amino}propionic acid (dihydrochloride)], the solubility at 10 min was determined as 2500 µg/mL.

For `Cc1cn(C[C@H](NS(C)(=O)=O)C(=O)O)c(=O)nc1N1CCC(CNc2nc3ccccc3[nH]2)CC1.Cl` [(2S)-3-(4-{4-[(1H-Benzimidazol-2-ylamino)methyl]-1-piperidinyl}-5-methyl-2-oxo-1(2H)-pyrimidinyl)-2-[(methylsulfonyl)amino]propanoic acid (hydrochloride)], the solubility at 10 min is less than 50 µg/mL.

The term solubility denotes how much of the substance goes into solution per volume.
